The source of these data is PMC11110756 (RSC Advances, 2024).

Read-outs that look alike come from different tables or passages of the source.

The subject of one data set is Caco-2. Briefly: MTT assay, antiproliferative activity on colorectal cancer Caco-2. The data set is classed as cell-based, human. Particulars: for cytotoxicity level in words, Caco-2: text grading; for SI (CaCo-2): selectivity index WI38 vs CaCo-2.
The next data set has as its system WI38. The data set is described as follows: MTT assay, cytotoxicity on normal lung fibroblast WI38. The data set is classed as cell-based, human. As to conditions: read-out: IC50 WI38. In general terms: Tetrazolium dyes change colour on reduction, which living cells bring about.
Data set [1] concerns A549. The data set is described as follows: MTT assay, antiproliferative activity on lung cancer A549. Particulars: for cytotoxicity level in words, A549: text grading. The data set is classed as cell-based, human.
For data set [2], the system named is A549. As to conditions: read-out: IC50 A549; reference drug; cited from earlier work.
Setting [3] is: Homo sapiens, Caco-2, read-out: IC50 CaCo-2.
Where [4] appears, read: Homo sapiens, A549, read-out: IC50 A549.

Regarding `CCOC(=O)Cn1cc(COc2ccccc2-c2nc(Cc3ccccc3)no2)nn1` [Compound 5b, Ethyl 2-(4-((2-(3-benzyl-1,2,4-oxadiazol-5-yl)phenoxy)methyl)-1H-1,2,3-triazol-1-yl)acetate], the IC50 in the data set on Caco-2 (setting [3]) worked out at 47.7 µM; in the data set with WI38 (Homo sapiens, WI-38, 72 h), 19.5 µM; in the data set with A549 [1] (setting [4]) it was 10.5 µM. Moreover, the “cytotoxicity level in words, Caco-2” value in the data set with Caco-2 (MTT) is on record as “moderate”. Besides, the “SI (CaCo-2)” value in the data set with Caco-2 is 0.41.
Turning to `Cc1c(O)ncc(COP(=O)([O-])O)c1C=NNC(=O)Cn1cc(COc2ccccc2-c2nc(-c3ccccc3)no2)nn1.[Na+]` [Compound 10a, Sodium-(6-hydroxy-5-methyl-4-((2-(2-(4-((2-(3-phenyl-1,2,4-oxadiazol-5-yl)phenoxy)methyl)-1H-1,2,3-triazol-1-yl)acetyl)hydrazonol)methyl)pyridin-3-yl)methyl hydrogen phosphate], the “cytotoxicity level in words, Caco-2” value with Caco-2 (MTT) is recorded as “moderate”. For the same molecule, the IC50 with Caco-2 (read-out: IC50 CaCo-2, MTT, colorectal cancer Caco-2) amounted to 26.7 µM; with WI38 (MTT, normal lung fibroblast WI38, 72 h) it was 9.02 µM; with A549 [1] (read-out: IC50 A549, MTT, lung cancer A549) it was 29.5 µM. For the same molecule, in the data set on Caco-2, the “SI (CaCo-2)” value stood at 0.34. For the same molecule, in the data set with A549 [1] (MTT), the “cytotoxicity level in words, A549” value was “moderate”.
`NC(=O)Cn1cc(COc2ccccc2-c2nc(-c3ccccc3)no2)nn1` [Compound 6a, 2-(4-((2-(3-Phenyl-1,2,4-oxadiazol-5-yl)phenoxy)methyl)-1H-1,2,3-triazol-1-yl)acetamide]: the IC50 was 14.1 µM in the data set with Caco-2 (setting [3]); 29.8 µM in the data set with WI38 (Homo sapiens, WI-38, 72 h); 12.7 µM in the data set with A549 [1] (setting [4]). Besides, the “SI (CaCo-2)” value with Caco-2 was 2.11.
Regarding `O=C(O)Cn1cc(COc2ccccc2-c2nc(Cc3ccccc3)no2)nn1` [Compound 7b, 2-(4-((2-(3-Benzyl-1,2,4-oxadiazol-5-yl)phenoxy)methyl)-1H-1,2,3-triazol-1-yl)acetic acid], the IC50 in the data set with Caco-2 (setting [3]) came out at 173 µM; in the data set with WI38 (Homo sapiens, WI-38, 72 h), 83.8 µM; in the data set with A549 [1] (setting [4]) it was 86 µM. The “cytotoxicity level in words, Caco-2” value with Caco-2 (MTT) is “weak to inactive”. Further, the “SI (CaCo-2)” value in the data set with Caco-2 is 0.48. In addition, the “cytotoxicity level in words, A549” value in the data set with A549 [1] (MTT) was “weak to inactive”.
As to `O=C(Cn1cc(COc2ccccc2-c2nc(-c3ccccc3)no2)nn1)NNC(=S)Nc1ccccc1` [Compound 11a, N-Phenyl-2-(2-(4-((2-(3-phenyl-1,2,4-oxadiazol-5-yl)phenoxy)methyl)-1H-1,2,3-triazol-1-yl)acetyl)hydrazine-1-carbothioamide], the IC50 with Caco-2 (setting [3]) turned out to be 32.2 µM; in the data set with WI38 (Homo sapiens, WI-38, 72 h), 21.6 µM; in the data set with A549 [1] (setting [4]), 12.4 µM. Further, the “cytotoxicity level in words, Caco-2” value with Caco-2 (MTT) is “moderate”. For the same molecule, in the data set on Caco-2, the “SI (CaCo-2)” value is 0.67.
For `CCOC(=O)Cn1cc(COc2ccccc2-c2nc(-c3ccccc3)no2)nn1` [Compound 5a, Ethyl 2-(4-((2-(3-phenyl-1,2,4-oxadiazol-5-yl)phenoxy)methyl)-1H-1,2,3-triazol-1-yl)acetate], in that order: 26.3 µM, 14.3 µM, 7.4 µM, “moderate” and 0.54.
With `NC(=O)Cn1cc(COc2ccccc2-c2nc(Cc3ccccc3)no2)nn1` [Compound 6b, 2-(4-((2-(3-Benzyl-1,2,4-oxadiazol-5-yl)phenoxy)methyl)-1H-1,2,3-triazol-1-yl)acetamide], the IC50 with Caco-2 (setting [3]) stood at 11.5 µM; with WI38 (Homo sapiens, WI-38, 72 h), 15.9 µM; with A549 [1] (setting [4]) it was 3.56 µM. The “SI (CaCo-2)” value in the data set with Caco-2 is 1.38.
As for `O=C(Cn1cc(COc2ccccc2-c2nc(Cc3ccccc3)no2)nn1)NNC(=S)Nc1ccccc1` [Compound 11b, 2-(2-(4-((2-(3-Benzyl-1,2,4-oxadiazol-5-yl)phenoxy)methyl)-1H-1,2,3-triazol-1-yl)acetyl)-N-phenylhydrazine-1-carbothioamide], the IC50 is 16.4 µM in the data set with Caco-2 (setting [3]); 34 µM with WI38 (Homo sapiens, WI-38, 72 h); 10.3 µM in the data set on A549 [1] (setting [4]). For the same molecule, the “SI (CaCo-2)” value with Caco-2 is reported as 2.08.
Regarding `O=C(Cn1cc(COc2ccccc2-c2nc(-c3ccccc3)no2)nn1)NN=Cc1ccccc1O` [Compound 9a, N′-(2-Hydroxybenzylidene)-2-(4-((2-(3-phenyl-1,2,4-oxadiazol-5-yl)phenoxy)methyl)-1H-1,2,3-triazol-1-yl)acetohydrazide], the IC50 in the data set on Caco-2 (setting [3]) was 3.37 µM; with WI38 (Homo sapiens, WI-38, 72 h), 6.1 µM; in the data set on A549 [1] (setting [4]), 6.52 µM. Further, the “SI (CaCo-2)” value in the data set on Caco-2 came to 1.81.
In the case of `O=C(O)Cn1cc(COc2ccccc2-c2nc(-c3ccccc3)no2)nn1` [Compound 7a, 2-(4-((2-(3-Phenyl-1,2,4-oxadiazol-5-yl)phenoxy)methyl)-1H-1,2,3-triazol-1-yl)acetic acid], the IC50 with Caco-2 (setting [3]) is 98.1 µM; in the data set on WI38 (Homo sapiens, WI-38, 72 h), 22.4 µM; in the data set with A549 [1] (setting [4]) it was 210 µM. In addition, the “cytotoxicity level in words, Caco-2” value in the data set with Caco-2 (MTT) was “weak to inactive”. The “SI (CaCo-2)” value in the data set on Caco-2 is 0.23. In addition, the “cytotoxicity level in words, A549” value with A549 [1] (MTT) is “weak to inactive”.
Turning to `Cc1c(O)ncc(COP(=O)([O-])O)c1C=NNC(=O)Cn1cc(COc2ccccc2-c2nc(Cc3ccccc3)no2)nn1.[Na+]` [Compound 10b, Sodium-(4-((2-(2-(4-((2-(3-benzyl-1,2,4-oxadiazol-5-yl)phenoxy)methyl)-1H-1,2,3-triazol-1-yl)acetyl)hydrazineylidene)methyl)-6-hydroxy-5-methylpyridin-3-yl)methyl hydrogen phosphate], the IC50 was determined as 44.5 µM with Caco-2 (setting [3]); 32.8 µM in the data set on WI38 (Homo sapiens, WI-38, 72 h); 37.3 µM in the data set on A549 [1] (setting [4]). Also, the “cytotoxicity level in words, Caco-2” value in the data set with Caco-2 (MTT) is given as “moderate”. Besides, the “SI (CaCo-2)” value in the data set on Caco-2 is 0.74. The “cytotoxicity level in words, A549” value in the data set with A549 [1] (MTT) was “moderate”.
As for `O=C(Cn1cc(COc2ccccc2-c2nc(Cc3ccccc3)no2)nn1)NN=Cc1ccccc1O` [Compound 9b, 2-(4-((2-(3-Benzyl-1,2,4-oxadiazol-5-yl)phenoxy)methyl)-1H-1,2,3-triazol-1-yl)-N'-(2-hydroxybenzylidene)acetohydrazide], the IC50 is 2.89 µM in the data set with Caco-2 (setting [3]); 2.12 µM with WI38 (Homo sapiens, WI-38, 72 h); 2.51 µM in the data set on A549 [1] (setting [4]). Besides, the “SI (CaCo-2)” value in the data set with Caco-2 is 0.73.
For `NNC(=O)Cn1cc(COc2ccccc2-c2nc(Cc3ccccc3)no2)nn1` [Compound 8b, 2-(4-((2-(3-Benzyl-1,2,4-oxadiazol-5-yl)phenoxy)methyl)-1H-1,2,3-triazol-1-yl)acetohydrazide], in that order: 4.44 µM, 3.6 µM, 4.27 µM and 0.81.
As for `COc1cccc2c1C(=O)c1c(O)c3c(c(O)c1C2=O)C[C@@](O)(C(=O)CO)C[C@@H]3O[C@H]1C[C@H](N)[C@H](O)[C@H](C)O1` [Doxorubicin, reference compound], the IC50 with Caco-2 (setting [3]) was 1.3 µM; in the data set with WI38 (Homo sapiens, WI-38, 72 h) it was 4.32 µM; in the data set with A549 [1] (setting [4]) it was 1 µM. In addition, the “SI (CaCo-2)” value in the data set on Caco-2 was determined as 3.32.
On to `COc1cc([C@@H]2c3cc4c(cc3[C@@H](O[C@@H]3O[C@@H]5CO[C@@H](C)O[C@H]5[C@H](O)[C@H]3O)[C@H]3COC(=O)[C@H]23)OCO4)cc(OC)c1O` [etoposide], for which the IC50 with A549 [2] was 3.08 µM.
Consider `NNC(=O)Cn1cc(COc2ccccc2-c2nc(-c3ccccc3)no2)nn1` [Compound 8a, 2-(4-((2-(3-Phenyl-1,2,4-oxadiazol-5-yl)phenoxy)methyl)-1H-1,2,3-triazol-1-yl)acetohydrazide], for which the IC50 is 12.9 µM in the data set on Caco-2 (setting [3]); 30.6 µM in the data set with WI38 (Homo sapiens, WI-38, 72 h); 13.1 µM in the data set on A549 [1] (setting [4]). Further, the “SI (CaCo-2)” value in the data set on Caco-2 was determined as 2.38.

In general, IC50 refers to the concentration that gives 50% inhibition.
